Measurements reported in the supplement of paper PMC12463676, “Small-molecule dissolution of stress granules by redox modulation benefits ALS models” (Nature Chemical Biology, 2025).

Tests used:
lipoamide = compound: NC(=O)CCCCC1CCSS1 [lipoamide]; assay: thermal stability z-score vs DMSO; higher = more thermally stabilized by treatment; conditions: HeLa, lipoamide concentration 100 µM
Method: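 Cellular thermal proteome profiling in HeLa cells. Cells were treated with 100 µM lipoamide for 1 h, with or without 1 mM arsenate for a further 1 h, then heated to ten temperatures (37-66.3 °C), and soluble protein was quantified by TMT mass spectrometry relative to 0.1% DMSO controls. The thermal stability score (sum of log2 fold changes minus the abundance score) was transformed to a z-score; mean of n = 3 experiments.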

potassium arsenate = compound: O=[As]([O-])(O)O.[K+] [potassium arsenate]; assay: as above; conditions: HeLa; arsenate concentration 1 mM
Method: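 Cellular thermal proteome profiling in HeLa cells treated with 1 mM arsenate for 1 h (DMSO pretreatment), heated to ten temperatures (37-66.3 °C). Soluble protein was quantified by TMT mass spectrometry relative to DMSO controls; the thermal stability score was transformed to a z-score; mean of n = 3 experiments.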

[1] = arsenate co-treatment: 1 mM arsenate 1 h
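Further: each temperature applied for 3 min, abundance score taken as mean log2 fold change at the two lowest temperatures, z-score obtained by mean subtraction and division by SD.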

Chain of UniProt Q5JSL3 (Q5JSL3 whole entry): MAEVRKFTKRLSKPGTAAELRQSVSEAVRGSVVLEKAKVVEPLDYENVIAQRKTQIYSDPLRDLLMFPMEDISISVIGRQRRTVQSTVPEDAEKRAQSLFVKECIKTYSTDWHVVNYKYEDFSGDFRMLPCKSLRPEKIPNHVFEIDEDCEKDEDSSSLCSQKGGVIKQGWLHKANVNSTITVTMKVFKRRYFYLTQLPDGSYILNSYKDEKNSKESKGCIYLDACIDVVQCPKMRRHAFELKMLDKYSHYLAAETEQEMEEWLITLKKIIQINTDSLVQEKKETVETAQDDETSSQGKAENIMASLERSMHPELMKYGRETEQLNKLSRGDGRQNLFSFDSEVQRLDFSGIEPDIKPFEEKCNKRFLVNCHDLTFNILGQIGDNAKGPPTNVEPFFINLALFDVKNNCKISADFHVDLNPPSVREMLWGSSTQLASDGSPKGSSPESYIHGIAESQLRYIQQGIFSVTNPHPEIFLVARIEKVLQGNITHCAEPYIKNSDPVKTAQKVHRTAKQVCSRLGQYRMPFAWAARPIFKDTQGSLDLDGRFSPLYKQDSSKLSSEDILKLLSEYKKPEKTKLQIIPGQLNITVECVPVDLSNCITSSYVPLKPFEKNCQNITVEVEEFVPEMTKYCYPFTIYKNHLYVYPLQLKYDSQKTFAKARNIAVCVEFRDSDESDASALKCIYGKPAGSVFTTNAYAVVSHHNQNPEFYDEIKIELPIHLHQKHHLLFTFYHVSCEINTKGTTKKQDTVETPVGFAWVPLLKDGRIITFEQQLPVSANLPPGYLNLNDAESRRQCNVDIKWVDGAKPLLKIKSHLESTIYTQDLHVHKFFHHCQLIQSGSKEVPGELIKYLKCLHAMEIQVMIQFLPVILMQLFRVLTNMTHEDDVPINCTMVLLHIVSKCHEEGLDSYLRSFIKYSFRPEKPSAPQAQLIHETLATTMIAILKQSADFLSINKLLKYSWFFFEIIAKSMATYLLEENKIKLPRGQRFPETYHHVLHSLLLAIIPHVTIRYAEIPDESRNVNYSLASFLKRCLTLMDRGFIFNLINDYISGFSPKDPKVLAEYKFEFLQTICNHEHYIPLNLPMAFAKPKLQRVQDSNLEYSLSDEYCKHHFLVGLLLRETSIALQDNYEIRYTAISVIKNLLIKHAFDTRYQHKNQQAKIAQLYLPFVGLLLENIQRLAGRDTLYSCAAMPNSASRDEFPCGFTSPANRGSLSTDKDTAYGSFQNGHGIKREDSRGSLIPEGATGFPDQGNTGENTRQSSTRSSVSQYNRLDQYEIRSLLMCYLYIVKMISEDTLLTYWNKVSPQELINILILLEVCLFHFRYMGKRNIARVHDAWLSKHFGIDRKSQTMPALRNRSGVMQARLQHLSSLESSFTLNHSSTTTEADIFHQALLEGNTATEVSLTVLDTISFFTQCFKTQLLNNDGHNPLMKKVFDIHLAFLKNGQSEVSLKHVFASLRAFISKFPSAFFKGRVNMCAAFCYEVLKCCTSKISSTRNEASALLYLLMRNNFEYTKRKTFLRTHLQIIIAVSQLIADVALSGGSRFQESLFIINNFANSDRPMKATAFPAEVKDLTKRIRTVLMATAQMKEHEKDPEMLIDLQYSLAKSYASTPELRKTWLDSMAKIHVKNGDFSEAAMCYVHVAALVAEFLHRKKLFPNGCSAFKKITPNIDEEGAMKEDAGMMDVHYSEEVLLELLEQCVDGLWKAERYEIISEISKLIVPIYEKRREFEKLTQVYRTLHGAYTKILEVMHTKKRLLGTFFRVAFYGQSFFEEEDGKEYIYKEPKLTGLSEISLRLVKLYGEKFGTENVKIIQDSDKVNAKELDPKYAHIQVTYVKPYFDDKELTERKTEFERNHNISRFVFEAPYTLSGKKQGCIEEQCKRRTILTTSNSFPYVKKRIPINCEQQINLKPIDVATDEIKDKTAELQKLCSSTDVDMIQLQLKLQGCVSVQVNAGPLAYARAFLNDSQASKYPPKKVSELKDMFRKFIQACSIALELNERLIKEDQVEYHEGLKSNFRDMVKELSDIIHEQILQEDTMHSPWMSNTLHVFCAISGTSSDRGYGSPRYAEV
Chain of UniProt Q9HAU5 (Q9HAU5 whole entry): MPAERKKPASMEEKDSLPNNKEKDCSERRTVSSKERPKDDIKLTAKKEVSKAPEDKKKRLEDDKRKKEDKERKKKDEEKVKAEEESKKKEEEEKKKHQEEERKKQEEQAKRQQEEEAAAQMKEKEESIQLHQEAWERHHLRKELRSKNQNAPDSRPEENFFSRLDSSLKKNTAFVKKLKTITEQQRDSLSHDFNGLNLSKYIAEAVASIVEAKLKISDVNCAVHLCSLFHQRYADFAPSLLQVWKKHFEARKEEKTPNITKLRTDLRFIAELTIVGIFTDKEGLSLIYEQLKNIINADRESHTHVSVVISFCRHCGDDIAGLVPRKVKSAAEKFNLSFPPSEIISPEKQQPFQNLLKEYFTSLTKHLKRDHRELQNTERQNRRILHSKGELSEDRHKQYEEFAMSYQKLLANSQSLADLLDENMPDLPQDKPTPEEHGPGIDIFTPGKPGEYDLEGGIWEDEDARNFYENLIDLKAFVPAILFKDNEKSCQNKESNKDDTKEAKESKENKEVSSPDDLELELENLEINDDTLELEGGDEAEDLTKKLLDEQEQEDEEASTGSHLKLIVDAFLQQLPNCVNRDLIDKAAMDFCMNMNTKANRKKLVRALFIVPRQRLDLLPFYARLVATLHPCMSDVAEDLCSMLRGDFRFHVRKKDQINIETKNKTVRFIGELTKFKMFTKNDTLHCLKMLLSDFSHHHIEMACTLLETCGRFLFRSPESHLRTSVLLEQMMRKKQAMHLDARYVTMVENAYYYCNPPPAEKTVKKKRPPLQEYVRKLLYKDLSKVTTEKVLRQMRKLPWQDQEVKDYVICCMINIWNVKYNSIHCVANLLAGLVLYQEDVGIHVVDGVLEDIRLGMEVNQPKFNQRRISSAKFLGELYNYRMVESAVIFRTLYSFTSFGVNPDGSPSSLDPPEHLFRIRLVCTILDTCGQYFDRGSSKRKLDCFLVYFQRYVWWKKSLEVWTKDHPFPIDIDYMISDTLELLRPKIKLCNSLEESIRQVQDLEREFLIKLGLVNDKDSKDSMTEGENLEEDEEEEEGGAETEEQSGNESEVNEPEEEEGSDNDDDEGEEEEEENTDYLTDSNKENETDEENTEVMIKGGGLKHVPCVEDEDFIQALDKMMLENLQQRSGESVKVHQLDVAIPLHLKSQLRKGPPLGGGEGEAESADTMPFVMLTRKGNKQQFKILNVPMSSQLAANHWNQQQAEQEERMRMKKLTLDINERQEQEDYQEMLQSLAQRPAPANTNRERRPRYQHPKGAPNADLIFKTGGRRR
Chain of UniProt Q8NEM2 (Q8NEM2 whole entry): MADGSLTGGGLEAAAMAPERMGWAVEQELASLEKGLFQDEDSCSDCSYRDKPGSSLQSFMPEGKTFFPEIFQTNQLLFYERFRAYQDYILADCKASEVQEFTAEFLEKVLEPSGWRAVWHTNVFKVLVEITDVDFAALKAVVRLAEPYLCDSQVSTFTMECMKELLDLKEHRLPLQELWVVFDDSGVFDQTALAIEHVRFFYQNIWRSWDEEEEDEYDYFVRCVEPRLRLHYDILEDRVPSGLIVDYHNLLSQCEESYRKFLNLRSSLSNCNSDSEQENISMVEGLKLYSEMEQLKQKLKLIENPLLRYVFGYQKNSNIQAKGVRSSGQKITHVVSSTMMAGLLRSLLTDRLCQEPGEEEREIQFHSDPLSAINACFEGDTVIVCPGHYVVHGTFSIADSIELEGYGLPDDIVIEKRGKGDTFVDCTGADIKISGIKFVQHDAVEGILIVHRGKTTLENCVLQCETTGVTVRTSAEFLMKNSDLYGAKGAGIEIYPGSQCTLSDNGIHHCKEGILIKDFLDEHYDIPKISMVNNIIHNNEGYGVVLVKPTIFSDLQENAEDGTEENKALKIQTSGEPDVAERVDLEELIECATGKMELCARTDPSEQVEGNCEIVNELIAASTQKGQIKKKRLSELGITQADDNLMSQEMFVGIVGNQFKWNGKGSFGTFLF
Chain of UniProt P53350 (P53350 whole entry): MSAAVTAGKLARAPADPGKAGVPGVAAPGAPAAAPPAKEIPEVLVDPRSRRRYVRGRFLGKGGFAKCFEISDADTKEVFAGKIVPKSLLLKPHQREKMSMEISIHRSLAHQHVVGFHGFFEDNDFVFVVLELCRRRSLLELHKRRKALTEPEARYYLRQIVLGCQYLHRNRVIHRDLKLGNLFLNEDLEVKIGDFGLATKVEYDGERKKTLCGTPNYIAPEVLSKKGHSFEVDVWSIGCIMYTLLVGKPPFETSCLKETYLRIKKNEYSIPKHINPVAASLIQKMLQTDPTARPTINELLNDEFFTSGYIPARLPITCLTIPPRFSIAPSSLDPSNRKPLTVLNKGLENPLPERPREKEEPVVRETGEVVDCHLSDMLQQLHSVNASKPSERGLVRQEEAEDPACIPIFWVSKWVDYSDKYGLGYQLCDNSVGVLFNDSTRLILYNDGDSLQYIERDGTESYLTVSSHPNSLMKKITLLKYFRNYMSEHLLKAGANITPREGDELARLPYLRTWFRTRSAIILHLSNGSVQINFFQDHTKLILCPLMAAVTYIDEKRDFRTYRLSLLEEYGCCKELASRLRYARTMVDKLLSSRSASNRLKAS
Chain of UniProt Q8WUF8 (Q8WUF8 whole entry): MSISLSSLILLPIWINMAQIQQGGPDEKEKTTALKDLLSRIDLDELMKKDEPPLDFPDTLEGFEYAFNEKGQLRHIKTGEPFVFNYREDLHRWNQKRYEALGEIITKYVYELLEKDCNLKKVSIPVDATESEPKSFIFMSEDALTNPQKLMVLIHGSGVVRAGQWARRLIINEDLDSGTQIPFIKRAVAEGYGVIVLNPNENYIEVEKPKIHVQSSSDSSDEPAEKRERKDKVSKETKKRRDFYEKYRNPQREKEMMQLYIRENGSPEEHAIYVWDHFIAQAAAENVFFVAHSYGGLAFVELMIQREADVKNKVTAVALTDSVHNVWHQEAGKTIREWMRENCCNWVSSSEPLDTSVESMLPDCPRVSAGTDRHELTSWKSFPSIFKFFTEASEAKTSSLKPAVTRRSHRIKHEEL

| Target | thermal stability z-score (lipoamide; [1]) | thermal stability z-score (lipoamide; arsenate co-treatment: none) | thermal stability z-score (potassium arsenate) |
| --- | --- | --- | --- |
| UQCC1 (UniProt Q9NVA1) | 0.493 | 0.855 | 1.5 |
| TRIP6 (UniProt Q15654) | -1.35 | -0.966 | -5.81 |
| SMG7 (UniProt Q92540) | -0.0753 | -0.0219 | -0.0408 |
| DTNBP1 (UniProt Q96EV8) | 0.331 | 0.505 | -0.102 |
| SHCBP1 (UniProt Q8NEM2) | 0.0159 | 0.0645 | -0.451 |
| C17ORF75 (UniProt Q9HAS0) | 0.0162 | -0.0686 | -0.0267 |
| INF2 (UniProt Q27J81) | -0.674 | -0.257 | 0.0741 |
| MYO19 (UniProt Q96H55) | 0.0427 | 0.347 | -0.139 |
| NDUFB8 (UniProt O95169) | 0.714 | 1.42 | 0.119 |
| DOCK11 (UniProt Q5JSL3) | -0.016 | 0.0791 | -0.755 |
| SEC23IP (UniProt Q9Y6Y8) | -0.784 | -1.16 | 1.54 |
| BCAR3 (UniProt O75815) | -0.0123 | -0.0689 | -0.106 |
| AIF1L (UniProt Q9BQI0) | -0.218 | -0.305 | -0.374 |
| GNB1L (UniProt Q9BYB4) | 0.757 | -0.25 | -0.589 |
| RPS16 (UniProt P62249) | 1.04 | 0.549 | -0.329 |
| DYNC1LI2 (UniProt O43237) | -0.543 | -0.166 | 0.192 |
| TMEM41A (UniProt Q96HV5) | 0.652 | 0.936 | 0.885 |
| PASK (UniProt Q96RG2) | 0.103 | 0.0323 | -0.353 |
| LSM4 (UniProt Q9Y4Z0) | 0.426 | 0.265 | 0.216 |
| SRP54 (UniProt P61011) | -0.193 | 0.172 | 0.715 |
| UBE2J2 (UniProt Q8N2K1) | -0.286 | -0.461 | -0.0347 |
| KDM3A (UniProt Q9Y4C1) | 0.00835 | -0.0932 | -0.0481 |
| PICALM (UniProt Q13492) | 0.107 | -0.16 | -0.0231 |
| UPF2 (UniProt Q9HAU5) | -0.16 | 0.104 | 0.0278 |

| Target | thermal stability z-score (lipoamide; [1]) | thermal stability z-score (lipoamide; arsenate co-treatment: none) | thermal stability z-score (potassium arsenate) |
| --- | --- | --- | --- |
| LAMA3 (UniProt Q16787) | 0.341 | -0.204 | 0.34 |
| FAM172A (UniProt Q8WUF8) | 0.954 | 0.472 | 0.275 |
| GPR126 (UniProt Q86SQ4) | -1.33 | -1.02 | -0.42 |
| RHBDF2 (UniProt Q6PJF5) | -0.0324 | -0.158 | 0.166 |
| HDDC3 (UniProt Q8N4P3) | -0.522 | -1.05 | -0.222 |
| FEN1 (UniProt P39748) | -0.489 | 0.469 | 0.572 |
| KDM5C (UniProt P41229) | 0.0486 | -0.0414 | -0.2 |
| MXRA7 (UniProt P84157) | 0.254 | 0.307 | -0.34 |
| CHML (UniProt P26374) | 0.57 | 0.276 | -0.161 |
| USP3 (UniProt Q9Y6I4) | 0.0204 | 0.0221 | -2.27 |
| WDHD1 (UniProt O75717) | 1.28 | 1.01 | -0.982 |
| SACS (UniProt Q9NZJ4) | -0.17 | -0.0653 | 0.0609 |
| TTC1 (UniProt Q99614) | -0.0842 | 0.337 | -0.104 |
| DDX11 (UniProt Q96FC9) | -0.753 | -0.517 | 1.07 |
| SET (UniProt Q01105) | 0.154 | 0.00988 | -0.503 |
| MRPS16 (UniProt Q9Y3D3) | -0.314 | -0.201 | 0.0354 |
| PDE1A (UniProt P54750) | 0.864 | 1.23 | 1.05 |
| KIF22 (UniProt Q14807) | -0.451 | 0.147 | -0.386 |
| CLYBL (UniProt Q8N0X4) | 0.208 | 0.433 | 0.695 |
| CEP41 (UniProt Q9BYV8) | -0.0855 | -0.44 | -0.106 |
| ZNF277 (UniProt Q9NRM2) | 0.365 | 0.166 | -0.515 |
| MEAF6 (UniProt Q9HAF1) | 0.687 | -0.0341 | -0.821 |
| NAPRT (UniProt Q6XQN6) | -0.379 | -0.0584 | -0.197 |
| PLK1 (UniProt P53350) | -0.0395 | -0.233 | -0.584 |

| Target | thermal stability z-score (lipoamide; [1]) | thermal stability z-score (lipoamide; arsenate co-treatment: none) | thermal stability z-score (potassium arsenate) |
| --- | --- | --- | --- |
| CDK5 (UniProt Q00535) | -0.0682 | 0.212 | 0.0671 |
| FKBP4 (UniProt Q02790) | 0.198 | 0.244 | 0.191 |
| NMRAL1 (UniProt Q9HBL8) | 1.43 | 1.45 | 1.37 |
| KLHL11 (UniProt Q9NVR0) | 0.651 | -0.0811 | -0.421 |
| SLC3A2 (UniProt P08195) | 0.528 | 0.49 | 0.0559 |
| GABPB1 (UniProt Q06547) | 0.17 | 0.498 | 5.01 |
| SRSF5 (UniProt Q13243) | 0.765 | 0.508 | -1.82 |
| CC2D1A (UniProt Q6P1N0) | 0.117 | 0.0816 | -0.0172 |
| SLC11A2 (UniProt P49281) | -1.6 | -0.179 | 0.512 |
| ADK (UniProt P55263) | -0.131 | -0.279 | -1.35 |
| SLC12A6 (UniProt Q9UHW9) | -0.454 | -0.27 | 0.131 |
| FNBP1L (UniProt Q5T0N5) | -0.051 | 0.0394 | -0.284 |
| ZNF830 (UniProt Q96NB3) | 1.38 | 0.482 | -0.642 |
| COMTD1 (UniProt Q86VU5) | -0.328 | -1.94 | -0.237 |
| ZFC3H1 (UniProt O60293) | 0.164 | -0.0359 | -0.434 |
| PYCR2 (UniProt Q96C36) | 0.43 | -0.4 | -0.765 |
| MGAT4B (UniProt Q9UQ53) | 0.713 | -0.264 | 0.26 |
| MTAP (UniProt Q13126) | 0.145 | -1.41 | -1.77 |
| TPT1 (UniProt P13693) | 0.494 | 0.196 | -0.445 |
| PSMG3 (UniProt Q9BT73) | 0.436 | -0.0166 | 0.28 |
| RIF1 (UniProt Q5UIP0) | 0.0548 | -0.0166 | -0.353 |
| SLC30A9 (UniProt Q6PML9) | 1.14 | 1.13 | 1.17 |
| SMPD4 (UniProt Q9NXE4) | 0.624 | 0.149 | 1.11 |
